{"source": "PubChem BioAssay AID2060496", "about": "(Molecular Pharmacology Branch, DTP, NCI, 2025)", "test_system": "276233-004-R-J1-PDC complex spheroid viability", "assay": "Anticancer human tumor 276233-004-R-J1-PDC patient-derived colon adenocarcinoma cell line growth inhibition [GQUAD]", "conditions": "for pIC50: curve of first compound; for viability, T/C: stronger effect = lower value", "text": "DNA G-quadruplex Stabilizer Agents in Combinations in Complex Spheroids\nA high-throughput screen of multi-cell type tumor spheroids was designed to identify active combinations of DNA G-quadruplex stabilizer agents and targeted small molecules. Complex spheroids include a stromal component modeled by human endothelial cells (HUVEC) and fibroblasts modeled by human mesenchymal stem cells (MSCs). The concentration ranges selected for each drug and investigational agent were based upon clinically achievable concentrations if the clinical Cmax of the agent was known.\nCompounds. The drugs and investigational agents: pidnarulex (CX-5461; NSC782164), APTO-253 (NSC789042), BRACO-19 (NSC847499), peposertib (NSC802822), ceralasertib (NSC780249), elimusertib (NSC800525), camonsertib (NSC841442), AZD-1390 (NSC803789), olaparib (NSC753686), talazoparib (NSC767125), ART-558 (NSC835418), sotorasib (NSC818433), MRTX-1133 (NSC836407), SN-38 (NSC673596), topotecan (NSC609699), etoposide (NSC141540), doxorubicin (NSC123127), gemcitabine (NSC613327), 5-fluorouracil (NSC19893), paclitaxel (NSC125973), vemurafenib (NSC761431), panobinostat (NSC761190), R-306465 (JNJ-16241199; NSC773264), adavosertib (NSC754352), TP-3654 (NSC805149), carboplatin (NSC241240), KSQ-4279 (NSC840948), and staurosporine (NSC755774) were obtained from the National Cancer Institute (NCI) Developmental Therapeutics Program Chemical Repository (34). The FDA-approved anticancer drug set is available from the NCI Developmental Therapeutics Program. […] The stock solutions were prepared in dimethyl sulfoxide (DMSO, Sigma-Aldrich, St. Louis, MO, cat. D2650) at 800-fold the tested concentration and stored at -70 degrees C prior to their use. All drugs and investigational agents were tested over a range starting from a high concentration at or near the clinical Cmax and decreasing in half-log increments. If the clinical Cmax for an agent had not been determined, the highest concentration tested was 10 microM.\n2.3 Cell Culture. All cells were maintained in an incubator at 37 degrees C and 5% CO2 with 95% humidity. The PDC lines were cultured according to standard operating procedures established by the NCI PDMR. All PDCs were thawed and cultured in Matrigel-coated flasks prepared with a working solution of 1X Ham's F-12 nutrient mix, without supplementation (Invitrogen, cat. 11765054), 100 U/mL penicillin-streptomycin (Invitrogen, cat. 15140122), and 2.5% Matrigel (Corning Inc., cat. 354248) for the first three passages. The 857933-349-R-J2-PDC line was cultured in 6C/Colon 1B media, which includes advanced DMEM/F-12 (Thermo Fisher Scientific, cat. 12634028), 10 mM HEPES (Thermo Fisher Scientific, cat. 15630080), 1X GlutaMAX supplement (Thermo Fisher Scientific, cat. 35050061), 0.1 mg/mL primocin (InvivoGen, cat. ant-pm-2), 10% defined fetal bovine serum, heat inactivated (HyClone Laboratories Inc., cat. SH30070.03HI), 50% L-WRN conditioned media (ATCC, cat. CRL-3276), 1.25 mM N-Acetyl-L-cysteine (Sigma-Aldrich, cat. A9165), 10 mM nicotinamide (Sigma-Aldrich, cat. N0636), 1X B-27 supplement (Thermo Fisher Scientific, cat. 17504044), 1X N-2 supplement (Thermo Fisher Scientific, cat. 17502048), 10 microM Y-27632 dihydrochloride (Tocris Bioscience, cat. 1254), and 50 ng/mL human EGF recombinant protein (Thermo Fisher Scientific, cat. PHG0311). The 485176-168-R4-J1-PDC line was cultured in Panc media, which includes all 6C/Colon 1B media components plus 100 ng/mL human FGF-10 (Thermo Fisher Scientific, cat. 100-26), 500 nM SB-431542 (Selleckchem, cat. S1067), and gastrin (Tocris, cat. 3006).\n[…]", "note": "pIC50: −log10 of the molar value.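 Also: spheroids exposed to drugs for seven days.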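 For viability, T/C in this document: 100% = DMSO vehicle control viability.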", "data": [{"smiles": "CC1COCCN1c1cc(-c2ccnn2C)c2ccnc(-c3ccn[nH]3)c2n1", "note": "(configuration not stated) + Cc1[nH]c2ccc(F)cc2c1-c1nc2c3cccnc3c3ncccc3c2[nH]1", "values": [{"measurement": "pIC50", "setting": "second compound 0.0316 µM", "result": "< 5.00"}, {"measurement": "pIC50", "setting": "second compound 0.1 µM", "result": "< 5.00"}, {"measurement": "pIC50", "setting": "second compound 0.316 µM", "result": "< 5.00"}, {"measurement": "pIC50", "setting": "second compound 1 µM", "result": 5.14}, {"measurement": "pIC50", "setting": "second compound 3.16 µM", "result": "> 7.50"}, {"measurement": "pIC50", "setting": "second compound 10 µM", "result": "> 7.50"}, {"measurement": "viability, T/C", "setting": "second compound 0.0316 µM, first compound 0.0316 µM", "result": 84.6, "unit": "%"}, {"measurement": "viability, T/C", "setting": "second compound 0.0316 µM, first compound 0.1 µM", "result": 69.4, "unit": "%"}, {"measurement": "viability, T/C", "setting": "second compound 0.0316 µM, first compound 0.316 µM", "result": 87, "unit": "%"}, {"measurement": "viability, T/C", "setting": "second compound 0.0316 µM, first compound 1 µM", "result": 70.5, "unit": "%"}, {"measurement": "viability, T/C", "setting": "second compound 0.0316 µM, first compound 3.16 µM", "result": 57.9, "unit": "%"}, {"measurement": "viability, T/C", "setting": "second compound 0.0316 µM, first compound 10 µM", "result": 56.3, "unit": "%"}, {"measurement": "viability, T/C", "setting": "second compound 0.1 µM, first compound 0.0316 µM", "result": 76.1, "unit": "%"}, {"measurement": "viability, T/C", "setting": "second compound 0.1 µM, first compound 0.1 µM", "result": 68, "unit": "%"}, {"measurement": "viability, T/C", "setting": "second compound 0.1 µM, first compound 0.316 µM", "result": 68.9, "unit": "%"}, {"measurement": "viability, T/C", "setting": "second compound 0.1 µM, first compound 1 µM", "result": 60, "unit": "%"}, {"measurement": "viability, T/C", "setting": "second compound 0.1 µM, first compound 3.16 µM", "result": 68.1, "unit": "%"}, {"measurement": "viability, T/C", "setting": "second compound 0.1 µM, first compound 10 µM", "result": 55.3, "unit": "%"}, {"measurement": "viability, T/C", "setting": "second compound 0.316 µM, first compound 0.0316 µM", "result": 90.5, "unit": "%"}, {"measurement": "viability, T/C", "setting": "second compound 0.316 µM, first compound 0.1 µM", "result": 87.7, "unit": "%"}, {"measurement": "viability, T/C", "setting": "second compound 0.316 µM, first compound 0.316 µM", "result": 71.2, "unit": "%"}, {"measurement": "viability, T/C", "setting": "second compound 0.316 µM, first compound 1 µM", "result": 60.3, "unit": "%"}, {"measurement": "viability, T/C", "setting": "second compound 0.316 µM, first compound 3.16 µM", "result": 57, "unit": "%"}, {"measurement": "viability, T/C", "setting": "second compound 0.316 µM, first compound 10 µM", "result": 59.7, "unit": "%"}, {"measurement": "viability, T/C", "setting": "second compound 1 µM, first compound 0.0316 µM", "result": 89.3, "unit": "%"}, {"measurement": "viability, T/C", "setting": "second compound 1 µM, first compound 0.1 µM", "result": 86.6, "unit": "%"}, {"measurement": "viability, T/C", "setting": "second compound 1 µM, first compound 0.316 µM", "result": 65.4, "unit": "%"}, {"measurement": "viability, T/C", "setting": "second compound 1 µM, first compound 1 µM", "result": 60.8, "unit": "%"}, {"measurement": "viability, T/C", "setting": "second compound 1 µM, first compound 3.16 µM", "result": 57.6, "unit": "%"}, {"measurement": "viability, T/C", "setting": "second compound 1 µM, first compound 10 µM", "result": 46.2, "unit": "%"}, {"measurement": "viability, T/C", "setting": "second compound 3.16 µM, first compound 0.0316 µM", "result": 48.1, "unit": "%"}, {"measurement": "viability, T/C", "setting": "second compound 3.16 µM, first compound 0.1 µM", "result": 48.5, "unit": "%"}, {"measurement": "viability, T/C", "setting": "second compound 3.16 µM, first compound 0.316 µM", "result": 53.9, "unit": "%"}, {"measurement": "viability, T/C", "setting": "second compound 3.16 µM, first compound 1 µM", "result": 45.1, "unit": "%"}, {"measurement": "viability, T/C", "setting": "second compound 3.16 µM, first compound 3.16 µM", "result": 44.1, "unit": "%"}, {"measurement": "viability, T/C", "setting": "second compound 3.16 µM, first compound 10 µM", "result": 32.5, "unit": "%"}, {"measurement": "viability, T/C", "setting": "second compound 10 µM, first compound 0.0316 µM", "result": 42, "unit": "%"}, {"measurement": "viability, T/C", "setting": "second compound 10 µM, first compound 0.1 µM", "result": 49.6, "unit": "%"}, {"measurement": "viability, T/C", "setting": "second compound 10 µM, first compound 0.316 µM", "result": 40.8, "unit": "%"}, {"measurement": "viability, T/C", "setting": "second compound 10 µM, first compound 1 µM", "result": 40.2, "unit": "%"}, {"measurement": "viability, T/C", "setting": "second compound 10 µM, first compound 3.16 µM", "result": 37.8, "unit": "%"}, {"measurement": "viability, T/C", "setting": "second compound 10 µM, first compound 10 µM", "result": 32.4, "unit": "%"}]}]}
